According to PubChem BioAssay (NCI):
Where “and” joins values, the source holds several entries; their conditions need not be identical. Equal entries are not always repeated.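 Results reflect a 48-hour exposure of cells in 96-well plates to compound at five concentrations. At the GI50, growth is halved. The concentration for full growth arrest is given as TGI.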

What was measured:
Test in all cases: NCI anticancer screen, dose series, 48 h
[1] = tested on: TK-10 renal
[2] = tested on: MCF7 breast
[3] = tested on: EKVX NSCLC
[4] = tested on: UACC-62 melanoma
[5] = tested on: 786-0 renal
[6] = tested on: K-562 leukemia
[7] = tested on: ACHN renal
[8] = tested on: HCT-116 colon
[9] = tested on: SR leukemia
[10] = tested on: UACC-257 melanoma
[11] = tested on: SF-295 CNS
[12] = tested on: MALME-3M melanoma
[13] = tested on: HS 578T breast
[14] = tested on: A498 renal
[15] = tested on: CAKI-1 renal
[16] = tested on: PC-3 prostate
[17] = tested on: SN12C renal
[18] = tested on: SK-MEL-5 melanoma
[19] = tested on: OVCAR-4 ovarian
[20] = tested on: M14 melanoma
[21] = tested on: KM12 colon
[22] = tested on: OVCAR-5 ovarian
[23] = tested on: CCRF-CEM leukemia
[24] = tested on: MDA-MB-468 breast
[25] = tested on: SF-539 CNS
[26] = tested on: SK-MEL-2 melanoma
[27] = tested on: UO-31 renal
[28] = tested on: COLO 205 colon
[29] = tested on: HL-60(TB) leukemia
[30] = tested on: RXF 393 renal
[31] = tested on: SK-OV-3 ovarian
[32] = tested on: RPMI-8226 leukemia
[33] = tested on: HCC-2998 colon
[34] = tested on: SK-MEL-28 melanoma
[35] = tested on: SF-268 CNS
[36] = tested on: OVCAR-3 ovarian
[37] = tested on: SNB-19 CNS
[38] = tested on: NCI-H23 lung
[39] = tested on: HCT-15 colon

Cn1cc(-c2cc(N)n3nc(-c4c[nH]c5ccc(Cl)cc45)cc3n2)c2cccnc21
GI50 [1]: 2020 nM | TGI [1]: 4.64 µM | GI50 [2]: 1770 nM | TGI [2]: 3.93 µM | GI50 [3]: 1850 nM | TGI [3]: 4.53 µM | GI50 [4]: 1630 nM | TGI [4]: 3.07 µM | GI50 [5]: 1560 nM | TGI [5]: 2910 nM | GI50 [6]: 2760 nM | TGI [6]: > 100 µM | GI50 [7]: 1720 nM | TGI [7]: 3.17 µM | GI50 [8]: 1810 nM | TGI [8]: 3.29 µM | GI50 [9]: 2300 nM | TGI [9]: > 100 µM | GI50 [10]: 1900 nM | TGI [10]: 3.87 µM | GI50 [11]: 1650 nM | TGI [11]: 3.13 µM | GI50 [12]: 1620 nM | TGI [12]: 3.04 µM | GI50 [13]: 1970 nM | TGI [13]: 5.08 µM | GI50 [14]: 20.1 µM | TGI [14]: 37.7 µM | GI50 [15]: 1640 nM | TGI [15]: 3.5 µM | GI50 [16]: 2540 nM | TGI [16]: 8.68 µM | GI50 [17]: 1520 nM | TGI [17]: 3.13 µM | GI50 [18]: 1650 nM | TGI [18]: 3.06 µM | GI50 [19]: 1790 nM | TGI [19]: 3.76 µM | GI50 [20]: 1810 nM | TGI [20]: 3.42 µM | GI50 [21]: 2030 nM | TGI [21]: 4.18 µM | GI50 [22]: 1730 nM | TGI [22]: 3.62 µM | GI50 [23]: 2510 nM | TGI [23]: 9.05 µM | GI50 [24]: 1560 nM | TGI [24]: 3.25 µM | GI50 [25]: 1620 nM | TGI [25]: 3.01 µM | GI50 [26]: 12.3 µM | TGI [26]: 24.7 µM | GI50 [27]: 1550 nM | TGI [27]: 3.05 µM | GI50 [28]: 1750 nM | TGI [28]: 3.27 µM | GI50 [29]: 1800 nM | TGI [29]: 5.47 µM | GI50 [30]: 1490 nM | TGI [30]: 2900 nM | GI50 [31]: 2030 nM | TGI [31]: 4.76 µM | GI50 [32]: 2600 nM | TGI [32]: > 100 µM | GI50 [33]: 1760 nM | TGI [33]: 3.2 µM | GI50 [34]: 1530 nM | TGI [34]: 2900 nM | GI50 [35]: 2060 nM | TGI [35]: 4.82 µM | GI50 [36]: 1680 nM | TGI [36]: 3.27 µM | GI50 [37]: 2600 nM | TGI [37]: 6.74 µM | GI50 [38]: 1710 nM | TGI [38]: 3.39 µM | GI50 [39]: 1790 nM | TGI [39]: 3.94 µM

Cc1sc2c(c1C)C(c1ccc(Cl)cc1)=N[C@@H](CC(=O)OC(C)(C)C)c1nnc(C)n1-2
GI50 [24]: 70.8 nM and 112 nM | TGI [24]: 1.52 µM and 10.8 µM

CCC(CNc1cc(OC)cc2cccnc12)NC1CCCCC1 (configuration not stated)
GI50 [24]: 7660 nM | TGI [24]: 35.5 µM

O=C(OCc1ncc(-c2ccc(C(F)(F)F)cc2)c(NC2CCCCCC2)n1)c1c(F)c(F)c(F)c(F)c1F
GI50 [24]: 2000 nM | TGI [24]: 5.01 µM

OCC(O)c1nc2ccc3[nH]ncc3c2c2c1CCCC2 (configuration not stated)
GI50 [24]: 1040 nM | TGI [24]: 2.11 µM

O=C(/C=C/c1ccccc1)n1c(-c2ccc(Cl)cc2)nc2ccccc21
GI50 [24]: 1520 nM | TGI [24]: 4.32 µM

COc1cccc(C2c3cc4c(cc3OC(N3CCCC3)C2C)OCO4)c1O (configuration not stated)
GI50 [24]: 3330 nM | TGI [24]: 15.8 µM

COC(=O)c1cc(O)c2c(c1C(=O)OC)C[C@H]1[C@@H]3CC=C4C[C@@H](O)CC[C@]4(C)[C@H]3CC[C@]21C
GI50 [24]: 2870 nM | TGI [24]: 18.1 µM

Cn1c2ccc(Br)cc2c2c3c(c4c5ccccc5[nH]c4c21)C(=O)N(O)C3=O
GI50 [24]: 214 nM | TGI [24]: 0.638 µM

Cc1cc(N2CCSCC2)nc(NC2CCCC(Nc3ccnc4cc(Cl)ccc34)C2)n1 (configuration not stated)
GI50 [24]: 1580 nM | TGI [24]: 3.35 µM

CCN(CC)CCCNC(=O)c1c2c(n3ccccc13)C(=O)c1ncccc1C2=O
GI50 [24]: 283 nM | TGI [24]: 1.08 µM

COc1ccc(/C=N\Nc2ccc([N+](=O)[O-])cn2)cc1OC
GI50 [24]: > 100000 nM | TGI [24]: > 100 µM

N#Cc1c(NC(=O)c2ccccc2C(F)(F)F)sc2c1CCC(=O)C2
GI50 [24]: 1690 nM | TGI [24]: 4.68 µM

NC(=O)c1cccc(Nc2nccc(Nc3cccc4[nH]ncc34)n2)c1
GI50 [24]: 2120 nM | TGI [24]: 9.35 µM

Cc1ccc(N(CC(=O)Nc2ccc(S(=O)(=O)N3CCC(N4CCCC4)CC3)cc2)S(=O)(=O)c2ccc(Cl)cc2)cc1
GI50 [24]: 1650 nM | TGI [24]: 3.48 µM

CCCC(CCC)C(=O)OCC1(CO)C/C(=C\c2ccc(F)cc2)C(=O)O1 (configuration not stated)
GI50 [24]: 11300 nM | TGI [24]: 24.2 µM

COc1ccccc1CNCCCN1C(=O)c2ccc3c4c(ccc(c24)C1=O)C(=O)N(CCCCNCCCN)C3=O
GI50 [24]: 267 nM | TGI [24]: 0.835 µM

COc1cc(Nc2nc3ccccc3cc2C(=O)Nc2ccc(F)c(F)c2)cc(OC)c1OC
GI50 [24]: 2010 nM | TGI [24]: 6.58 µM
